Data reported in US20240199618A1, “NOVEL N-ACYL-[3-SUBSTITUTED]-[8-SUBSTITUTED]-5,6-DIHYDRO-[1,2,4]TRIAZOLO[4,3-a]PYRAZINES AS SELECTIVE NK-3 RECEPTOR ANTAGONISTS, PHARMACEUTICAL COMPOSITION, METHODS FOR USE IN NK-3 RECEPTOR-MEDIATED DISORDERS” (Ogeda SA, priority 2013, published 2024).

Key:
human NK-1 receptor = human NK-1 receptor (Homo sapiens (Human), UniProt P25103); assay: Selectivity assay: [3H] substance P binding, human NK-1 receptor; settings: 2 nM [3H] substance P, CHO membranes; read-out: hNK-1 (Ki)
Chain of human NK-1 receptor (P25103 whole entry): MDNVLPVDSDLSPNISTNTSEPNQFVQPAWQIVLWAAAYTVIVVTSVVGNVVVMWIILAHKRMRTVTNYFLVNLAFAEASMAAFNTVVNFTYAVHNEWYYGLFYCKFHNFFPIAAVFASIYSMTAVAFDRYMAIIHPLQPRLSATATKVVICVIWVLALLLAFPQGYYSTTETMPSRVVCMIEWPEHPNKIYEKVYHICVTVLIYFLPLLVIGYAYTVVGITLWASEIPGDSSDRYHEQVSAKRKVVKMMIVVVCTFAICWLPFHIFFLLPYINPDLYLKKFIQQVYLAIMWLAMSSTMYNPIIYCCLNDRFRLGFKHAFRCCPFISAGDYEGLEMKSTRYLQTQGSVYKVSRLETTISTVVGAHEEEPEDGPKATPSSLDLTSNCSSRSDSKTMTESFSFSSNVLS
Procedure, shortened: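 Competition binding on membranes from CHO cells expressing human NK-1 receptor, using 2 nM [3H] substance P in 50 mM Tris/5 mM MnCl2/150 mM NaCl/0.1% BSA, pH 7.4, with increasing compound concentrations. Incubated 60 min at 25 °C; bound radioactivity measured after filtration.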

[1] = system: body temperature (pyrogenic response to feeding); assay: Thermoregulation in OVX ewes; type: in vivo, ewe; settings: 1 mg/kg intravenous bolus
Description: In Vivo Assay in OVX Ewes-Activity in Thermoregulation Experimental Methods: Evaluation of Thermoregulation in OVX Ewe […] After 4 months recovery, animals were acclimatised to housing in single pens for a period of 7 days with ad libitum access to water and […] lucerne hay. One day prior to experimentation, the animals received a jugular vein cannula ([…], Tuta Laboratories, Lane Cove, Australia). The cannulo were kept patent with heparinised saline. On the day of the experiment, compound n^o 5 of the present invention was formulated in physiological saline with 9% 2-hydroxypropyl-β-cyclodextrin at a concentration of 2 mg/mL. […] Animals were fed at 12 h00. Rectal temperatures were monitored with a probe at hourly intervals throughout the experiment, starting at 7 h40 and concluding at 15 h40.

[2] = system: circulating levels of luteinizing hormone (LH); assay: Castrated male rat model, circulating luteinizing hormone (LH); type: in vivo; settings: single oral dose less than or equal to 30 mg/kg, p<0.05
Protocol: Castrated Male Rat Model to Assess the Effect of Compound of Invention on Circulating Levels of Luteinizing Hormone (LH)
The effect of compounds of the invention to inhibit luteinizing hormone (LH) secretion is determined by the following biological studies.
In humans and rodents, castration is well-precedented to permit heightened, persistent GnRH signaling and consequent elevation of circulating LH. Thus, a castrated rat model is used to provide a broad index for measurement of LH inhibition as a marker of test compound inhibition of the GnRH signaling pathway.
Castrated adult male Sprague-Dawley (SD) rats (150-175 g,) were purchased from Janvier (St Berthevin, France). All animals were housed 2 per cage in a temperature-controlled room (22±2° C.) and 50±5% relative humidity with a 12 hour/12 hour light/dark cycles (lights off at […]). The animals were allowed 3 weeks of postoperative recovery prior to study. Animals were handled on a daily basis. Standard diet and tap water were provided ad libitum. Animal cage litters were changed once a week. On the study day, animals were acclimated to the procedure room for a period of one hour prior to the initiation of the experiment.
Compounds of the invention were formulated in 0.5% methyl cellulose.
After basal sampling (TO) a single dose of compounds of the invention or vehicle was administrated orally to rats. Blood samples were then collected at several time points post dosing (45, 90, 150, 300 and 420 minutes). Blood samples were obtained via tail vein bleed, drawn into EDTA-containing tubes and centrifuged immediately. Plasma samples were collected and stored in a −80° C. freezer until assayed. Serum LH levels were determined using radioimmunoassay kit from RIAZEN—Rat L H, Zentech (Liege, Belgium). Baseline was defined as the initial basal blood sample.

plasma protein = assay: Determination of plasma protein binding (equilibrium dialysis, RED); type: in vitro ADME; settings: 4 hours at 37° C.
plasma estradiol = assay: Estradiol circulating level in female rats; type: in vivo, rat; settings: 10 mg/kg b.i.d. oral, 10 days, FIG. 3
Protocol: Effect of compounds of the invention on Estradiol circulating level in female rats The aim of this study was to evaluate the effect of compounds of the invention on plasma estradiol levels following oral administration at 10 mg/kg (b.i.d.) for a period of 10 days in female rats.
Briefly the experimental methods used for this study were as follows: Two groups of adult, female rats (Sprague-Dawley, ˜320 g) were treated in-phase with their individual estrous cycles. Thus, treatment was started in the proestrus phase (coincident with peak estradiol levels, as shown on Day 1 in FIG. 3) and rats were dosed twice daily (˜9 h30 and 17 h30) by oral administration either with a compound of the invention at 10 mg/kg or with the vehicle for the control group. Compounds of the invention were prepared in a dose formulation of pyrogen-free water with 0.5% methylcellulose. Estradiol levels were determined for all groups by ELISA performed on plasma samples derived from blood collections taken at 30 minutes before the daily, 9 h30 test article administration on all days presented in FIG. 3.

Ki (human NK-1 receptor): > 30 µM
Exposure (% rPPB), bound drug fraction to plasma protein (plasma protein): 22%
Compound: Cc1nsc(-c2nnc3n2CCN(C(=O)c2ccc(F)cc2)[C@@H]3C)n1 [Compound 5, (R)-(4-fluorophenyl)(8-methyl-3-(3-methyl-1,2,4-thiadiazol-5-yl)-5,6-dihydro-[1,2,4]triazolo[4,3-a]pyrazin-7(8H)-yl)methanone]
pyrogenic response to feeding [1]: not observed
body temperature at the 12 h40 time point ([1]; after feeding at 12 h00, mean±SEM): 38.9±0.2 °C
circulating LH levels [2]: significantly suppressed
estradiol levels (plasma estradiol): significantly decreased
